Where two headings read alike, the source gives them in different places.
Assays:
[1] = amide bond, HATU/DIEA, DMF
[2] = system: mouse models of narcolepsy type 1 / WT mice; conditions: cited from earlier work
individuals with NT1 = conditions: initial clinical studies; cited from earlier work

## N-(1^3,1^5-difluoro-5-oxo-6-aza-4(2,1)-pyrrolidina-1-(1,2),2-(1,3)-dibenzena-cycloundecaphane-4^3-yl)ethanesulfonamide_cis racemic
Crosslinker bond, 15-membered ring, CDI/DIEA, DMF, 52.5 mM, 25.0 °C
  ring closure, yield after HPLC: 11%

## N-(6-methyl-5-oxo-9-oxa-6-aza-4(2,1)-piperidina-1(1,2),2(1,3)-dibenzena-cyclo-nonaphane-4^3-yl)methanesulfonamide_cis racemic
Crosslinker bond, 13-membered ring, triphosgene/DIEA, DCM, 8.5 mM, 25.0 °C
  ring closure, yield after HPLC: 3%

## N-(5-oxo-6,9-dioxa-4(2,1)-pyrrolidina-1(1,2),2(1.3)-dibenzenacyclo-nonaphane-4^3-yl)ethanesulfonamide_cis racemic
Crosslinker bond, 13-membered ring, CDI/DIEA, DMF, 10.0 mM, 80.0 °C
  ring closure, yield after HPLC: 22%

## CN(C)S(=O)(=O)NC1CCCN2C(=O)CCOc3ccccc3-c3cccc(c3)CC12 (stereo not shown)
From CN(C)S(=O)(=O)NC1CCCNC1Cc1cccc(-c2ccccc2OCCC(=O)O)c1, amide bond, 12-membered ring, HATU/DIEA, DMF, 0.4 mM, 20.0 °C, 12.0 h
  ring closure, yield after HPLC: 29.9%

## N-((4^2,4^3S)-5-oxo-8-oxa-4(2,1)-piperidina-1(1,2),2(1.3)-dibenzenacyclo-octaphane-4^3-yl)ethanesulfonamide
Amide bond, 12-membered ring, HATU/DIEA, DMF, 2.24 mM, 25.0 °C
  ring closure, yield after HPLC: 29.4%

## N-((4^2S,4^3S)-5-oxo-8-oxa-4(2,1)-piperidina-1(1,2),2(1,3)-dibenzenacyclo-octaphane-4^3-yl)methanesulfonamide
Amide bond, 12-membered ring, HATU/DIEA, DMF, 2.31 mM, 25.0 °C
  ring closure, yield after HPLC: 23.4%

## N-(5-oxo-12-phenyl-2,3,5,6,7,8,9,10,16,16a-decahydro-1H-benzo[b]pyrrolo[2,1-e][1]oxa[6]azacyclododecin-1-yl)ethanesulfonamide_cis racemic
Ether bond, 12-membered ring, K2CO3, DMF, 10.7 mM, 80.0 °C
  ring closure, yield after HPLC: 10%

## N-(5-oxo-4(2,1)-piperidina-1(1,2),2(1,3)-dibenzenacycloundecaphane-4^3-yl)methanesulfonamide_cis racemic
[1]; 15-membered ring, 8.9 mM, 25.0 °C
  ring closure, isolated yield: 67%

## COc1ccc(-c2cccc(C(=O)N(C)C)c2)cc1S(=O)(=O)Nc1cccc(NCCNC(=O)c2ccccc2N(C)C)c1 [YNT-185]
[2]; intraperitoneally or ICV, NT1 mouse model
  sleep-onset REM periods and cataplexy-like events: decrease sleep-onset REM periods and cataplexy-like events
[2]; intraperitoneally or ICV, wild type (WT) and orexin ligand-deficient mice
  wakefulness: modestly increases wakefulness

## O=C1CCCN2C(=O)CCOc3cccc(F)c3-c3cccc(c3)CC12 (stereo not shown)
[1]; from O=C(O)CCOc1cccc(F)c1-c1cccc(CC2NCCCC2=O)c1, 12-membered ring, 0.49 mM, 25.0 °C, 12.0 h
  ring closure, isolated yield: 27.7%

## COC(=O)N1CCC[C@H](NS(C)(=O)=O)[C@@H]1CO[C@H]1CC[C@@H](c2ccccc2)CC1 [TAK-925]
[2]; subcutaneous administration, OX2R-knockout mice
  wakefulness: not
[2]; subcutaneous administration, WT mice
  wakefulness: modestly increased wakefulness
Individuals with NT1
  cataplexy: trends for decreasing cataplexy
  wakefulness: substantial levels of increased wakefulness

## N-(5-oxo-4(2,1)-piperidina-1(1,2),2(1,3)-dibenzenacyclononaphane-4^3-yl)-methanesulfonamide_cis racemic
[1]; 13-membered ring, 9.9 mM, 25.0 °C
  ring closure, isolated yield: 27%

## N-(1^3,1^5-difluoro-5-oxo-4(2,1)-pyrrolidina-1(1,2),2(1,3)-dibenzenacyclo-undecaphane-4^3-yl)ethanesulfonamide_cis racemic
Amide bond, 15-membered ring, HATU/DIEA, DCM, 11.7 mM, 25.0 °C
  ring closure, yield after HPLC: 8%

## N-(5-oxo-9-oxa-4(2,1)-piperidina-1(1,2),2(1,3)-dibenzenacyclononaphane-4^3-yl)methanesulfonamide_cis racemic
[1]; 13-membered ring, 10.0 mM, 25.0 °C
  ring closure, isolated yield: 38%

## N-((4^2S,4^3S)-5-oxo-4(2,1)-piperidina-1(1,2),2(1,3)-dibenzenacyclooctaphane-4^3-yl)methanesulfonamide
[1]; 12-membered ring, 6.5 mM
  ring closure, isolated yield: 6%

Source: patent US20230331720A1, “MEDIUM- OR MACRO-CYCLIC BENZYL-SUBSTITUTED HETEROCYCLE DERIVATIVES AND THEIR USES AS OREXIN-2 RECEPTOR AGONISTS” (Orexia Therapeutics Limited, priority 2020, published 2023)
